Laboratory results published in US20250313563A1, “GLYCOGEN SYNTHASE KINASE 3 INHIBITORS AND USES THEREOF” (The Broad Institute, Inc., priority 2022, published 2025).
Read-outs that look alike come from different tables or passages of the source.

What was measured:
[1] = molecular target: GSK3α (GST-full length GSK3α) (Homo sapiens (Human), UniProt P49840); test: GSK3α TR-FRET kinase assay; format: biochemical
Description: (§1) TR-FRET Assay: The assay was performed in a white, 384 well, low volume, flat bottom plate (Grenier). After a 30 minute preincubation in assay buffer with the indicated concentration of compound, the kinase activity was initiated by the addition of the substrates. 1 nM GSK3α (GST-full length GSK3α [SignalChem G08-10G]) or 1 nM GSK3b (GST-full length GSK3b: [SignalChem G08-9G]) were then incubated at ambient temperature for 100 minutes in 10 μL of 50 mM Tris, pH 7.5, 20 mM MgCl2, 0.05 mM DTT, 100 μg/mL BSA and 1% DMSO, with 200 nM biotinylated peptide substrate (biotinylated and S645 phosphorylated glycogen synthase 631-650) and either 4 μM ATP (GSK3α, Table 16) or 2 μM ATP (GSK3b, Table 16) or 1 mM ATP (Table 17). The kinase activity was quenched with 2 μL of 250 mM EDTA. A 10 μL volume of 40 nM Strepavidin-d2, 2 nM Tb^2+-pSer641 antibody in TR-FRET Detection Buffer (Invitrogen) was then added. After 60 min at room temperature the plate was read on Envision plate reader using Ex: 340 nm, Em: 615 nm and […]. The normalized 665/615 Signal ratio versus log compound concentration was analyzed by XLFIT to yield IC50 values.

[2] = molecular target: GSK3b (GST-full length GSK3b) (Homo sapiens (Human), UniProt P49841); test: GSK3b TR-FRET kinase assay; format: biochemical
Chain of GSK3b (GST-full length GSK3b) (P49841 whole entry): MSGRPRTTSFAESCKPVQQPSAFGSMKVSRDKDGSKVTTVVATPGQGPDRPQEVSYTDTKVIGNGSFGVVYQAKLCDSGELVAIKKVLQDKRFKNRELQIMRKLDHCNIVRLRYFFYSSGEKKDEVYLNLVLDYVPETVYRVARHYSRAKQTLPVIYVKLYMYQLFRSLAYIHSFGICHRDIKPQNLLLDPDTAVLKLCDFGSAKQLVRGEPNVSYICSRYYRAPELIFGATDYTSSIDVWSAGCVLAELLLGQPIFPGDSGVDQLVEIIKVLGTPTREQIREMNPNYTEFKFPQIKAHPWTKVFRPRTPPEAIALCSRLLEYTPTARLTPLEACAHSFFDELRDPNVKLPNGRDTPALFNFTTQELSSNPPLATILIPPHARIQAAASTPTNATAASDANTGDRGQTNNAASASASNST
Description: as §1

[3] = 1 nM GSK3α, 4 μM ATP, 30 minute preincubation, geometric mean, read-out: GSK3-A TR-FRET BIOCHEMICAL (TR-FRET), GMean, IC50
[4] = 1 nM GSK3b, 2 μM ATP, 30 minute preincubation, geometric mean, read-out: GSK3-B TR-FRET BIOCHEMICAL (TR-FRET), GMean, IC50
[5] = read-out: GSK3-A (TR-FRET 1 mM ATP), GMean, IC50, 1 mM ATP, geometric mean
[6] = read-out: GSK3-B (TR-FRET 1 mM ATP), GMean, IC50, 1 mM ATP, geometric mean
[7] = 1 nM GSK3α, 4 μM ATP, 30 minute preincubation, Table 16, read-out: GSK3-A TR-FRET BIOCHEMICAL (TR-FRET)
[8] = 1 nM GSK3b, 2 μM ATP, 30 minute preincubation, Table 16, read-out: GSK3-B TR-FRET BIOCHEMICAL (TR-FRET)

Chain of GSK3α (GST-full length GSK3α) (P49840 whole entry): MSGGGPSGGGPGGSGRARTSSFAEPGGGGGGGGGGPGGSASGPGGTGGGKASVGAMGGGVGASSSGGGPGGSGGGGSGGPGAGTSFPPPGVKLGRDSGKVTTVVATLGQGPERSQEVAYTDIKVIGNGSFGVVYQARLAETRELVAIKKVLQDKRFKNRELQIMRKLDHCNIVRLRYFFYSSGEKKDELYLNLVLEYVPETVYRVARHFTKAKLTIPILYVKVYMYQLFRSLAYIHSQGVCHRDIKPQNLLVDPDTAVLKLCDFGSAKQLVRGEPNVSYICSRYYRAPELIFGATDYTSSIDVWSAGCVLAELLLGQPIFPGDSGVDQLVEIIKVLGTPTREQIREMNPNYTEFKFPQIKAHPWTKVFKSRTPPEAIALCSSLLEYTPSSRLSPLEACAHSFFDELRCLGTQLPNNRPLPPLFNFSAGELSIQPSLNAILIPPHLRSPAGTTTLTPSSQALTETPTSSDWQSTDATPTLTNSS

SMILES	IC50 [1, 3] [nM]	IC50 [2, 4] [nM]	IC50 [1, 5] [nM]	IC50 [2, 6] [nM]	IC50 [1, 7] [nM]	IC50 [2, 8] [nM]
CC[C@]1(c2ccccc2)C2=C(C[C@H](C)CC2=O)Nc2n[nH]cc21 [Compound 789011]	> 5000	> 5000	–	–	–	–
CC[C@]1(c2ccccc2)C2=C(C[C@H](C)CC2=O)Nc2n[nH]cc21 [Compound 789013]	100 to 1000	> 5000	–	–	–	–
CC1(C)CC(=O)C2=C(C1)Nc1n[nH]cc1C2(C)c1cccc(Br)c1 (stereo not shown) [Compound 789277]	≤ 100	100 to 1000	–	–	–	–
CCC1(c2cccc(Br)c2)C2=C(CC(C)(C)CC2=O)Nc2n[nH]cc21 (stereo not shown) [Compound 789312]	≤ 100	100 to 1000	–	–	–	–
CCC1(c2ccccc2)C2=C(CC3(CC3)CC2=O)Nc2n[nH]cc21 (stereo not shown) [Compound 789330]	100 to 1000	1000 to 5000	–	–	–	–
C[C@@H]1CC(=O)C2=C(C1)Nc1n[nH]cc1[C@]2(C)c1ccccc1 [Compound 789331]	> 5000	> 5000	–	–	–	–
C[C@H]1CC(=O)C2=C(C1)Nc1n[nH]cc1[C@]2(C)c1ccccc1 [Compound 789332]	100 to 1000	100 to 1000	–	–	–	–
C[C@@H]1CC(=O)C2=C(C1)Nc1n[nH]cc1[C@@]2(C)c1ccccc1 [Compound 789333]	> 5000	> 5000	–	–	–	–
C[C@H]1CC(=O)C2=C(C1)Nc1n[nH]cc1[C@@]2(C)c1ccccc1 [Compound 789334]	100 to 1000	1000 to 5000	–	–	–	–
CC1(C)CC(=O)C2=C(C1)Nc1n[nH]cc1C2(C)c1cc(Cl)cc(Cl)c1 (stereo not shown) [Compound 789337]	100 to 1000	1000 to 5000	–	–	–	–
CC[C@@]1(c2ccc(C)cc2)C2=C(CC(C)(C)CC2=O)Nc2n[nH]cc21 [Compound 789457]	100 to 1000	1000 to 5000	–	–	–	–
CC[C@]1(c2ccc(C)cc2)C2=C(CC(C)(C)CC2=O)Nc2n[nH]cc21 [Compound 789458]	> 5000	> 5000	–	–	–	–
CCC1(c2ccccc2)C2=C(CC(C)(C)CC2=O)Nc2n[nH]c(Br)c21 (stereo not shown) [Compound 789459]	≤ 100	≤ 100	–	–	–	–
CC1(c2ccccc2)C2=C(CC3(CCCC3)CC2=O)Nc2n[nH]cc21 (stereo not shown) [Compound 789460]	100 to 1000	100 to 1000	–	–	–	–
CC1(C)CC(=O)C2=C(C1)Nc1n[nH]cc1C2(c1ccccc1)c1ccccc1 [Compound 789461]	1000 to 5000	> 5000	–	–	–	–
CCC1(c2ccccc2)C2=C(CCCC2=O)Nc2n[nH]cc21 (stereo not shown) [Compound 789497]	1000 to 5000	> 5000	–	–	–	–
CC1(C)CC(=O)C2=C(C1)Nc1n[nH]cc1C2(C)c1cccc(-c2ccccc2)c1 (stereo not shown) [Compound 789513]	100 to 1000	100 to 1000	–	–	–	–
CCC1(c2cccc(-c3ccccc3)c2)C2=C(CC(C)(C)CC2=O)Nc2n[nH]cc21 (stereo not shown) [Compound 789514]	100 to 1000	100 to 1000	–	–	–	–
CCC1(c2cccc(C)c2)C2=C(CC(C)(C)CC2=O)Nc2n[nH]cc21 (stereo not shown) [Compound 789560]	–	100 to 1000	1000 to 5000	> 5000	–	–
CC[C@]1(c2cccc(C)c2)C2=C(CC(C)(C)CC2=O)Nc2n[nH]cc21 [Compound 789561]	1000 to 5000	> 5000	–	–	–	–
CC[C@@]1(c2ccccc2)C2=C(CC3(CCCC3)CC2=O)Nc2n[nH]cc21 [Compound 789562]	≤ 100	100 to 1000	–	–	–	–
CC[C@]1(c2ccccc2)C2=C(CC3(CCCC3)CC2=O)Nc2n[nH]cc21 [Compound 789563]	> 5000	> 5000	–	–	–	–
CCC1(c2cccc(Cl)c2)C2=C(CC(C)(C)CC2=O)Nc2n[nH]c(Br)c21 (stereo not shown) [Compound 789564]	≤ 100	≤ 100	–	–	–	–

SMILES	IC50 [1, 3] [nM]	IC50 [2, 4] [nM]	IC50 [1, 5] [nM]	IC50 [2, 6] [nM]	IC50 [1, 7] [nM]	IC50 [2, 8] [nM]
CCC1(c2cccc(Cl)c2)C2=C(CC(C)(C)CC2=O)Nc2n[nH]c(C)c21 (stereo not shown) [Compound 790611]	> 5000	> 5000	–	–	–	–
CC[C@@]1(c2ccccc2)C2=C(CC3(CC3)CC2=O)Nc2n[nH]cc21 [Compound 790615]	≤ 100	100 to 1000	–	–	–	–
CC[C@]1(c2ccccc2)C2=C(CC3(CC3)CC2=O)Nc2n[nH]cc21 [Compound 790616]	> 5000	> 5000	–	–	–	–
CCC1(c2cccc(C(F)(F)F)c2)C2=C(CC3(CCCC3)CC2=O)Nc2n[nH]cc21 (stereo not shown) [Compound 790617]	≤ 100	≤ 100	–	–	–	–
CCC1(c2ccn(C)n2)C2=C(CC(C)(C)CC2=O)Nc2n[nH]cc21 (stereo not shown) [Compound 790619]	1000 to 5000	> 5000	–	–	–	–
CC1(C)CC(=O)C2=C(C1)Nc1n[nH]c(C(F)(F)F)c1C21CCCOc2ccccc21 (stereo not shown) [Compound 790632]	> 5000	> 5000	–	–	–	–
CC1(C)CC(=O)C2=C(C1)Nc1n[nH]cc1C21CCCC1 [Compound 790666]	–	–	–	–	≤ 100	≤ 100
CC1(C)CC(=O)C2=C(C1)Nc1n[nH]cc1C2(C)c1cccc(-c2ccncc2)c1 (stereo not shown) [Compound 790730]	≤ 100	100 to 1000	–	–	–	–
CCC1(c2cccc(Br)c2)C2=C(CC(C)(C)CC2=O)Nc2n[nH]cc21 (stereo not shown) [Compound 790733]	≤ 100	≤ 100	100 to 1000	1000 to 5000	–	–
CCC1(c2cccc(Br)c2)C2=C(CC(C)(C)CC2=O)Nc2n[nH]cc21 (stereo not shown) [Compound 790734]	100 to 1000	> 5000	–	–	–	–
CCC1(c2cccc(C(F)(F)F)c2)C2=C(CC(C)(C)CC2=O)Nc2n[nH]cc21 (stereo not shown) [Compound 790754]	≤ 100	≤ 100	100 to 1000	1000 to 5000	–	–
CC(C)(C)Cc1[nH]nc2c1C1(CCc3c(F)cccc31)C1=C(CC(C)(C)CC1=O)N2 (stereo not shown) [Compound 791256]	> 1700	1000 to 5000	–	–	–	–
CC[C@]1(c2ccccc2)C2=C(C[C@H](c3ccccc3)CC2=O)Nc2n[nH]cc21 [Compound 791262]	> 5000	> 5000	–	–	–	–
CC[C@@]1(c2ccccc2)C2=C(C[C@H](c3ccccc3)CC2=O)Nc2n[nH]cc21 [Compound 791263]	> 5000	> 5000	–	–	–	–
CC[C@]1(c2ccccc2)C2=C(C[C@@H](c3ccccc3)CC2=O)Nc2n[nH]cc21 [Compound 791264]	100 to 1000	> 5000	–	–	–	–
CC[C@@]1(c2ccccc2)C2=C(C[C@@H](c3ccccc3)CC2=O)Nc2n[nH]cc21 [Compound 791265]	1000 to 5000	> 5000	–	–	–	–
CC[C@]1(c2ccccc2)C2=C(Nc3n[nH]cc31)[C@@H]1CC[C@@H](C1)C2=O [Compound 791266]	–	–	–	–	> 5000	> 5000
CC[C@@]1(c2ccccc2)C2=C(Nc3n[nH]cc31)[C@@H]1CC[C@@H](C1)C2=O [Compound 791268]	–	–	–	–	> 5000	> 5000
CC[C@]1(c2ccccc2)C2=C(Nc3n[nH]cc31)[C@H]1CC[C@H](C1)C2=O [Compound 791269]	–	–	–	–	100 to 1000	100 to 1000
CC[C@@]1(c2ccccc2)C2=C(Nc3n[nH]cc31)[C@H]1CC[C@H](C1)C2=O [Compound 791270]	–	–	–	–	100 to 1000	> 1700
CCC1(c2cccc(-c3ccncc3)c2)C2=C(CC(C)(C)CC2=O)Nc2n[nH]cc21 (stereo not shown) [Compound 791271]	≤ 100	100 to 1000	–	–	–	–
CCC1(c2cccc(-c3cccnc3)c2)C2=C(CC(C)(C)CC2=O)Nc2n[nH]cc21 (stereo not shown) [Compound 791272]	≤ 100	100 to 1000	–	–	–	–
C[C@@]1(c2ccccc2)C2=C(CC3(CCCC3)CC2=O)Nc2n[nH]cc21 [Compound 792338]	≤ 100	100 to 1000	–	–	–	–
